*1 amine or outer side, *2 acyl side, *3 side chain or, on linkers, in order; H or OH if unused. Where a SMILES comes first, the peptide text is derived from it. Side-chain parts run from the residue outwards. [ ]: non-standard residue; d: D form. The star is where a group is joined. ξ: configuration not given here. Pro(4R-OPh) = O=C(O)[C@@H]1C[C@@H](Oc2ccccc2)CN1; CH2(1-naphthyl) = c1ccc2c(C*)cccc2c1; NH(1-naphthyl) = c1ccc2c(N*)cccc2c1; Adipoyl = O=C(CCCCC(=O)[*:2])[*:1]; 1Naphthoyl = O=C(c1cccc2ccccc12)*; 2Naphthoyl = O=C(c1ccc2ccccc2c1)*; Pyrazinecarbonyl = O=C(c1cnccn1)*; Hyp = O=C(O)[C@@H]1C[C@@H](O)CN1; ξAla(CF3) = NC(CC(F)(F)F)C(=O)O; Nva = CCC[C@H](N)C(=O)O; X1 = c1ccc2cc(C*)ccc2c1; X2 = Clc1ccc(Cl)c(N*)c1; X4 = COc1ccc(OC)c(N*)c1; 2Abz = Nc1ccccc1C(=O)O; Abu = CC[C@H](N)C(=O)O; X3 = c1ccc2c(c1)CCCN2*; Aib = CC(C)(N)C(=O)O; CO = O=C([*:1])[*:2]; Bz = O=C(c1ccccc1)*; NHPh = c1ccc(N*)cc1; Bn = c1ccc(C*)cc1

Chain of Hepatitis C virus serine protease, NS3/NS4A (Hepatitis C virus, UniProt D2K2A8+A3EZI9) (D2K2A8 whole entry): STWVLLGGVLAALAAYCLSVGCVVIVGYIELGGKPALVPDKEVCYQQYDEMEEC
Chain of Hepatitis C virus serine protease, NS3/NS4A (Hepatitis C virus, UniProt D2K2A8+A3EZI9) (A3EZI9 whole entry): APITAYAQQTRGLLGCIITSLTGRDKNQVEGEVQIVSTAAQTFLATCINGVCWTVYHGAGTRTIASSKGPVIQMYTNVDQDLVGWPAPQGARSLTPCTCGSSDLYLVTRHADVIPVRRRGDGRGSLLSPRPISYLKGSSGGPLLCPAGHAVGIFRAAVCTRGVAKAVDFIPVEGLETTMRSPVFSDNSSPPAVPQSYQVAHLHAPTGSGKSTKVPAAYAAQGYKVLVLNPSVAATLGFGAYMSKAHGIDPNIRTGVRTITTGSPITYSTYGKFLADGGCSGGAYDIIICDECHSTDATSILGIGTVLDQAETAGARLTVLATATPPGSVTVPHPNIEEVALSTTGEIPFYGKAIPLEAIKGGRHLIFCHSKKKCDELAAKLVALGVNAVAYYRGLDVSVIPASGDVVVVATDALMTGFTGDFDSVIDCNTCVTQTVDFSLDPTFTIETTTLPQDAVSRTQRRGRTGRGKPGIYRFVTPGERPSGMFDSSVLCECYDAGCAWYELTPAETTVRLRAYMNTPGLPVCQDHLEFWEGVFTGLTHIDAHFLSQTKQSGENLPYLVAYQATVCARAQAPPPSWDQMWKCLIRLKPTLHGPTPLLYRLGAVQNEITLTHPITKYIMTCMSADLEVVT

The target in one experiment is Hepatitis C virus serine protease, NS3/NS4A (Hepatitis C virus, UniProt A3EZI9+D2K2A8). The experiment in a line: (§1) Inhibition of HCV (Hepatitis C Virus) NS3-4A protease. In kind it is protein-complex assay, Hepacivirus hominis.
Chain of Hepatitis C virus serine protease, NS3/NS4A (Hepatitis C virus, UniProt A3EZI9+D2K2A8) (D2K2A8 whole entry): as the sequence (D2K2A8 whole entry) above
Chain of Hepatitis C virus serine protease, NS3/NS4A (Hepatitis C virus, UniProt A3EZI9+D2K2A8) (A3EZI9 whole entry): as the sequence (A3EZI9 whole entry) above
What is called Ki is the equilibrium dissociation constant of an inhibitor or competing ligand from its target. Lower therefore signals higher affinity. In turn, `CC[C@@H](C=O)NC(=O)[C@@H]1C[C@@H](OCc2ccccc2)CN1C(=O)[C@@H](NC(=O)[C@@H](NC(=O)c1cnccn1)C(C)C)C(C)C` (Pyrazinecarbonyl-VV[Hyp](Bn)[Abu]-aldehyde) came in with a Ki of 12 µM.
The same measure, in the same setting: for `COC[C@@H](C=O)NC(=O)[C@@H]1C[C@@H](OCc2ccccc2)CN1C(=O)[C@@H](NC(=O)[C@@H](NC(=O)c1cnccn1)C(C)C)C(C)C` (Pyrazinecarbonyl-VV[Hyp](Bn)S(Me)-aldehyde) the value was greater than 50 µM; for `CC(C)[C@H](NC(=O)c1cnccn1)C(=O)N[C@H](C(=O)N1C[C@H](OCc2ccccc2)C[C@H]1C(=O)NC(C=O)CC(F)(F)F)C(C)C` (some centres not stated) (Pyrazinecarbonyl-VV[Hyp](Bn)[ξAla(CF3)]-aldehyde), 3.1 µM.
`CC(C)[C@H](NC(=O)c1cnccn1)C(=O)N[C@H](C(=O)N1C[C@H](OCc2ccccc2)C[C@H]1C(=O)NC(C)(C)C=O)C(C)C` (Pyrazinecarbonyl-VV[Hyp](Bn)[Aib]-aldehyde) showed an inhibitory constant (Ki) greater than 50 µM.
The compound `CCC[C@@H](C=O)NC(=O)[C@@H]1C[C@@H](OCc2ccccc2)CN1C(=O)[C@@H](NC(=O)[C@@H](NC(=O)c1cnccn1)C(C)C)C(C)C` (Pyrazinecarbonyl-VV[Hyp](Bn)[Nva]-aldehyde) showed a Ki of 3.8 µM.
`CC[C@@H](C=O)NC(=O)[C@@H]1C[C@@H](OCc2ccccc2)CN1C(=O)[C@@H](NC(=O)[C@@H](NC(=O)[C@H](CC(=O)O)NC(=O)[C@H](CCC(=O)O)NC(C)=O)C(C)C)C(C)C` (Ac-EDVV[Hyp](Bn)[Abu]-aldehyde) registered an inhibition constant (Ki) of 0.89 µM.

Another experiment addresses Hepatitis C virus serine protease, NS3/NS4A (Hepatitis C virus, UniProt D2K2A8+A3EZI9). Described as §1. In kind it is protein-complex assay, Hepacivirus hominis.
Consider `CC[C@@H](C=O)NC(=O)[C@@H]1C[C@@H](OC(=O)c2cccc3ccccc23)CN1C(=O)[C@@H](NC(=O)[C@@H](NC(=O)c1cnccn1)C(C)C)C(C)C` (Pyrazinecarbonyl-VV[Hyp](1Naphthoyl)[Abu]-aldehyde), for which the Ki came out at 1.9 µM.
`CC[C@@H](C=O)NC(=O)[C@@H]1C[C@@H](OCc2ccc3ccccc3c2)CN1C(=O)[C@@H](NC(=O)[C@@H](NC(=O)c1cnccn1)C(C)C)C(C)C` (Pyrazinecarbonyl-VV[Hyp](X1)[Abu]-aldehyde) showed an inhibition constant Ki of 1.7 µM.
`CC[C@@H](C=O)NC(=O)[C@@H]1C[C@@H](OC(=O)Nc2cccc3ccccc23)CN1C(=O)[C@@H](NC(=O)[C@@H](NC(=O)c1cnccn1)C(C)C)C(C)C` (Pyrazinecarbonyl-VV[Hyp]([CO-NH(1-naphthyl)])[Abu]-aldehyde): the inhibition constant Ki was determined as 12.5 µM.
The same measure, in the same setting: the figure for `CC[C@@H](C=O)NC(=O)[C@@H]1C[C@@H](OC(=O)N2CCCc3ccccc32)CN1C(=O)[C@@H](NC(=O)[C@@H](NC(=O)c1cnccn1)C(C)C)C(C)C` (Pyrazinecarbonyl-VV[Hyp]([CO-X3])[Abu]-aldehyde) is 0.89 µM.
`CC[C@@H](C=O)NC(=O)[C@@H]1C[C@@H](Oc2cccc3cccnc23)CN1C(=O)[C@@H](NC(=O)[C@@H](NC(=O)c1cnccn1)C(C)C)C(C)C` came in with a Ki greater than 50 µM.
As for `CC[C@@H](C=O)NC(=O)[C@@H]1C[C@@H](OCc2cccc3ccccc23)CN1C(=O)[C@@H](NC(=O)[C@@H](NC(=O)c1cnccn1)C(C)C)C(C)C` (Pyrazinecarbonyl-VV[Hyp](CH2(1-naphthyl))[Abu]-aldehyde), affinity was put at a Ki of 2.9 µM.
For `CC[C@@H](C=O)NC(=O)[C@@H]1C[C@@H](OC(=O)c2ccc3ccccc3c2)CN1C(=O)[C@@H](NC(=O)[C@@H](NC(=O)c1cnccn1)C(C)C)C(C)C` (Pyrazinecarbonyl-VV[Hyp](2Naphthoyl)[Abu]-aldehyde), the Ki is 0.4 µM.
Turning to `CC[C@@H](C=O)NC(=O)[C@@H]1C[C@@H](OC(=O)Nc2ccccc2C(=O)OC)CN1C(=O)[C@@H](NC(=O)[C@@H](NC(=O)c1cnccn1)C(C)C)C(C)C` (Pyrazinecarbonyl-VV[Hyp]([CO-2Abz-OMe])[Abu]-aldehyde), the Ki turned out to be 2.5 µM. This Ki lies about 6.2-fold higher than the previous one.
Compound `CC[C@@H](C=O)NC(=O)[C@@H]1C[C@@H](OC(=O)Nc2cc(Cl)ccc2Cl)CN1C(=O)[C@@H](NC(=O)[C@@H](NC(=O)c1cnccn1)C(C)C)C(C)C` (Pyrazinecarbonyl-VV[Hyp]([CO-X2])[Abu]-aldehyde) registered an inhibitory constant (Ki) of 3.2 µM.
For `CC[C@@H](C=O)NC(=O)[C@@H]1C[C@@H](OC(=O)Nc2ccccc2)CN1C(=O)[C@@H](NC(=O)[C@@H](NC(=O)c1cnccn1)C(C)C)C(C)C` (Pyrazinecarbonyl-VV[Hyp]([CO-NHPh])[Abu]-aldehyde), the Ki was found to be 22.3 µM.
The same measure, in the same setting: the figure for `CC[C@@H](C=O)NC(=O)[C@@H]1C[C@@H](Oc2ccc3ccccc3c2)CN1C(=O)[C@@H](NC(=O)[C@@H](NC(=O)c1cnccn1)C(C)C)C(C)C` is 7.4 µM; for `CC[C@@H](C=O)NC(=O)[C@@H]1C[C@@H](OC(=O)Nc2cc(OC)ccc2OC)CN1C(=O)[C@@H](NC(=O)[C@@H](NC(=O)c1cnccn1)C(C)C)C(C)C` (Pyrazinecarbonyl-VV[Hyp]([CO-X4])[Abu]-aldehyde) it is 7.9 µM; for `CC[C@@H](C=O)NC(=O)[C@@H]1C[C@@H](Oc2cccc3ccccc23)CN1C(=O)[C@@H](NC(=O)[C@@H](NC(=O)c1cnccn1)C(C)C)C(C)C` it is 2.1 µM.
`CC[C@@H](C=O)NC(=O)[C@@H]1C[C@@H](OC(=O)c2ccccc2)CN1C(=O)[C@@H](NC(=O)[C@@H](NC(=O)c1cnccn1)C(C)C)C(C)C` (Pyrazinecarbonyl-VV[Hyp](Bz)[Abu]-aldehyde): the affinity corresponds to a Ki of 5.8 µM.
Same read-out and setting: the figure for `CC[C@@H](C=O)NC(=O)[C@@H]1C[C@@H](OC(=O)c2ccc3ccccc3c2)CN1C(=O)[C@@H](NC(=O)[C@@H](NC(=O)CCCCC(=O)O)C(C)C)C(C)C` (Adipoyl-VV[Hyp](2Naphthoyl)[Abu]-aldehyde) is 0.11 µM.
`CC[C@@H](C=O)NC(=O)[C@@H]1C[C@@H](Oc2ccccc2)CN1C(=O)[C@@H](NC(=O)[C@@H](NC(=O)c1cnccn1)C(C)C)C(C)C` (Pyrazinecarbonyl-VV[Pro(4R-OPh)][Abu]-aldehyde) yielded an inhibition constant (Ki) of 3.9 µM.

The record behind these values is ChEMBL document CHEMBL1136438, “Inhibitors of hepatitis C virus NS3.4A protease 1. Non-charged tetrapeptide variants” (Bioorg Med Chem Lett, 2003).
